Columns and labels:
[1] = target: T1, human Nav1.7 R1599P (rpNav1.7) (Homo sapiens, UniProt Q15858, R1610P); assay: Long-term inactivation of rpNav1.7; assay type: cell-based
T1 construct: expressed in transfected cells; host or cells: HEK293 cells, transient transfection with pcDNA3.1 construct

[2] = target: T1, human Nav1.7 R1599P (rpNav1.7); assay: Inhibition of Navβ4 peptide-mediated rpNav1.7 INaR; assay type: cell-based; conditions: 100 μM Navβ4 peptide + 1 mM FHF4A peptide, HEK293; n = 5
[3] = test system: human Nav1.8; assay: INaR, Nav1.8 co-expressed with FHF2B; assay type: cell-based
Method: (§1) HEK293 cells and ND7/23 cells were grown under standard tissue culture conditions (5% CO2 and 37°C) in DMEM supplemented with 10% FBS, 1% penicillin and 1% streptomycin. Using Invitrogen Lipofectamine 2000, human Nav1.7 R1599P (rpNav1.7) and the mutant constructs were transiently co-transfected with Navβ1 and Navβ2 into HEK293 cells. The constructs human Nav1.8 and mutants were transiently co-transfected with FHF2B or FHF4A into ND7/23 cells. The lipofectamine-DNA mixture was added to the cell culture medium and left for 3 h after which the cells were washed with fresh medium. Cells with green fluorescent protein fluorescence were selected for whole-cell patch-clamp recordings 36–72 h after transfection.
(§2) Whole-cell voltage-clamp recordings were performed at room temperature (~21°C) using an EPC-10 amplifier and the Pulse program (HEKA Electronics). Fire-polished electrodes (0.7–1.0 MΩ) were fabricated from 1.7 mm capillary glass using a P-97 puller (Sutter Instruments), and the tips were coated with sticky wax (KerrLab) to reduce electrode capacitance and enable increased series resistance compensation. The pipette solution contained (in mM) 140 CsF, 1.1 EGTA, 10 NaCl, and 10 HEPES, pH 7.3. The bathing solution was (in mM) 130 mM NaCl, 30 mM TEA chloride, 1 mM MgCl2, 3 mM KCl, 1 mM CaCl2, 10 mM HEPES, and 10 mM d-glucose, pH 7.3 (adjusted with NaOH). […] The offset potential was zeroed before contacting the cell. After establishing the whole-cell recording configuration, the resting potential was held at −120 or −100 mV for 5 min to allow adequate equilibration between the micropipette solution and the cell interior. Linear leak subtraction, based on resistance estimates from four to five hyperpolarizing pulses applied before the depolarizing test potential, was used for all voltage clamp recordings. Membrane currents were usually filtered at 5 kHz and sampled at 20 kHz. […] Voltage errors were minimized using 80–95% series resistance compensation, and the capacitance artifact was canceled using the computer-controlled circuitry of the patch clamp amplifier. […] The concentration-dependent curves were fitted to a hill equation: Y = Bottom + (Top-Bottom)/(1 + 10^((LogEC50-X)*HillSlope)).
(§3) INaR: INaR was elicited by repolarizing voltage steps from +20 to −80 mV for 100 ms (or 200 ms) in −5 mV increments, following a 20-ms depolarizing potential of +30 mV. […] The relative INaR in Nav1.7 and Nav1.8 was calculated by normalizing to the peak transient current elicited at −10 or 0 mV.

[4] = test system: Nav1.8 Y387K; assay: INaR, Nav1.8 mutant Y387K; assay type: cell-based, human; conditions: 1 mM FHF4A peptide, + FHF2B, ND7/23; n = 8; p > 0.05 vs Nav1.8
Method: as §1
(§4) Whole-cell voltage-clamp recordings were performed at room temperature (~21°C) using an EPC-10 amplifier and the Pulse program (HEKA Electronics). […]
as §3

[5] = test system: Nav1.8 N390K; assay: INaR, Nav1.8 mutant N390K; assay type: cell-based, human; conditions: 1 mM FHF4A peptide
Method: as §1, §4, §3

[6] = test system: Nav1.8 Y1717K; assay: INaR, Nav1.8 mutant Y1717K; assay type: cell-based, human; conditions: 1 mM FHF4A peptide, + FHF2B, ND7/23; n = 10; p > 0.05 vs Nav1.8
Method: as §1, §4, §3

[7] = test system: Nav1.8 N891S; assay: INaR, Nav1.8 mutant N891S; assay type: cell-based, human; conditions: 1 mM FHF4A peptide, + FHF2B, ND7/23; −80 to +20 mV; n = 6
Method: as §1, §4, §3

[8] = test system: human Nav1.8; assay: Gating properties (steady-state activation, inactivation, INaP), Nav1.8; assay type: cell-based
Method: as §1, §2
(§5) Families of sodium currents were induced by 50-ms depolarizing steps to various potentials ranging from −120 (or −100) to +40 mV in 5-mV increments. The conductance was calculated using the equation G(Nav) = I/(V - Vrev) in which I, V, and Vrev represent inward current value, membrane potential, and reversal potential, respectively.
Voltage dependence of steady-state inactivation was estimated using a standard double pulse protocol in which sodium currents were induced by a 50-ms depolarizing potential of 0 mV following a 500-ms prepulse at potentials that ranged from −150 to +10 mV with a 10-mV increment. Currents were plotted as a fraction of the maximum peak current. To obtain the midpoint voltages (V1/2) and slope factor (k), the curves of both steady-state activation and inactivation were fitted to a Boltzmann function.

[9] = test system: Nav1.8 Y387K; assay: Gating properties, Nav1.8 mutant Y387K; assay type: cell-based, human; conditions: 1 mM FHF4A peptide
Method: as §1, §2
as §5, with “respectively. […]” for “respectively.”

[10] = test system: Nav1.8 N390K; assay: Gating properties, Nav1.8 mutant N390K; assay type: cell-based, human; conditions: 1 mM FHF4A peptide
Method: as §1, §2
as §5, with “respectively. […]” for “respectively.”

[11] = test system: Nav1.8 N891S; assay: Gating properties, Nav1.8 mutant N891S; assay type: cell-based, human; conditions: 1 mM FHF4A peptide
Method: as §1, §2
as §5, with “respectively. […]” for “respectively.”

[12] = test system: Nav1.8; conditions: n = 6, ref Xiao et al., 2022; cited from earlier work
Text: Increased INaR may result from destabilizing fast inactivation or increasing “window currents” of VGSCs ([Xiao et al., 2019]).

[13] = test system: Nav1.8; conditions: ref Xiao et al., 2022; cited from earlier work
Text: This mechanism requires that the peptides compete with the fast inactivation particle to block open VGSCs at strong positive potentials and unblocks upon repolarization so that the channels can reconduct ([Cannon and Bean, 2010]).

[14] = Nav1.8 + FHF2B, ND7/23, 1 mM FHF4A peptide
[15] = Nav1.8 + FHF2B, ND7/23, 1 mM, held at −100 mV, scramble n = 8, FHF4A peptide n = 10, p > 0.05

T1 sequence (Q15858 1-1977 isoform Q15858-3 R1599P): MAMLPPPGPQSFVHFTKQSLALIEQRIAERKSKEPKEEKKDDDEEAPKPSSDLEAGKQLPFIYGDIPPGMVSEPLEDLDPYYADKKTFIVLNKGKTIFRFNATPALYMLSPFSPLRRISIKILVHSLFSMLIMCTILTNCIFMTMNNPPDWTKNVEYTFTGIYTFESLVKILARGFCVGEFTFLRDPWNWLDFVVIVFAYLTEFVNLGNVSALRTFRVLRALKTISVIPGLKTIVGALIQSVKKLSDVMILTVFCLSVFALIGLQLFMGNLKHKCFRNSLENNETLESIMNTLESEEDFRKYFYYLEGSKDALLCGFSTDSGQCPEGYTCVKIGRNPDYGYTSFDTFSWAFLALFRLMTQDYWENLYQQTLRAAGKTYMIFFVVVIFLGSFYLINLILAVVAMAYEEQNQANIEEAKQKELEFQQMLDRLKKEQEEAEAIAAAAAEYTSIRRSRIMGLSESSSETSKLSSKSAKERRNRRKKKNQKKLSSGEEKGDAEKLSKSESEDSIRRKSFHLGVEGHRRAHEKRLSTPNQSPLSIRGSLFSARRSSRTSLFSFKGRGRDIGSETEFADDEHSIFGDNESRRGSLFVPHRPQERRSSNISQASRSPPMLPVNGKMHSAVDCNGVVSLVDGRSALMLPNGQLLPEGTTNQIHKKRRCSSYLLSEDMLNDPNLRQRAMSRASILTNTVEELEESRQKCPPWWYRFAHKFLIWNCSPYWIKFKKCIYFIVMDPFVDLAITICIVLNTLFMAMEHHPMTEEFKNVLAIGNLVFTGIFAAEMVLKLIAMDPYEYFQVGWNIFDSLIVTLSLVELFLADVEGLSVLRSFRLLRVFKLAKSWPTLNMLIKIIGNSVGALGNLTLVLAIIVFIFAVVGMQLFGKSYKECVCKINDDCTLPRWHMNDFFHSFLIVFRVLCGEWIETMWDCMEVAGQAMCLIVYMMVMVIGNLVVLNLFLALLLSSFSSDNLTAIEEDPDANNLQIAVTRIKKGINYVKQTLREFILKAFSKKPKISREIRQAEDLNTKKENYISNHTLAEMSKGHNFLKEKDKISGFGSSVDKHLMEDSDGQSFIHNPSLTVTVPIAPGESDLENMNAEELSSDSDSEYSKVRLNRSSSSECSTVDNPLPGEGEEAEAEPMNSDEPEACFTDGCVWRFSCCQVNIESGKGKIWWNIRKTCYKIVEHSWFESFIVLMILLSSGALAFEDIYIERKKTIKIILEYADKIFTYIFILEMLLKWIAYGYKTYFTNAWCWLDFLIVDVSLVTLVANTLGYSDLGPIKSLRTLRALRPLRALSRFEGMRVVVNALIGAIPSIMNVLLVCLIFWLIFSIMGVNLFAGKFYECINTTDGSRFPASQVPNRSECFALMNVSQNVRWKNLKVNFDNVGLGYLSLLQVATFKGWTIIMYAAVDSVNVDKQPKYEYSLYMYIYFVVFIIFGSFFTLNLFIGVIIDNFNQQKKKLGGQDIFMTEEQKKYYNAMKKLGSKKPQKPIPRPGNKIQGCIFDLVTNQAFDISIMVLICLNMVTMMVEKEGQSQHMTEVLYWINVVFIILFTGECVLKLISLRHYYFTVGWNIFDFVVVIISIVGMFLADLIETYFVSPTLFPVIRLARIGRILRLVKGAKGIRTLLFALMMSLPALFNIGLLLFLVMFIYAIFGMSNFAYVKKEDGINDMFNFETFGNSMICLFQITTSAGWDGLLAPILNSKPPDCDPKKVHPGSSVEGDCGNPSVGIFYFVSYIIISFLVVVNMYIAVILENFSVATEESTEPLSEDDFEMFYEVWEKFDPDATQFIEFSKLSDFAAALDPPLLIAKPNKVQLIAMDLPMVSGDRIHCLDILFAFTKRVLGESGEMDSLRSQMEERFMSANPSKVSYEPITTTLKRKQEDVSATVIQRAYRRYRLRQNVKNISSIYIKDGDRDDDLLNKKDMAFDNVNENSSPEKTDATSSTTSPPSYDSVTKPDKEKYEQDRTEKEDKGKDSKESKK
T1 sequence (Q07699 19-218 partner): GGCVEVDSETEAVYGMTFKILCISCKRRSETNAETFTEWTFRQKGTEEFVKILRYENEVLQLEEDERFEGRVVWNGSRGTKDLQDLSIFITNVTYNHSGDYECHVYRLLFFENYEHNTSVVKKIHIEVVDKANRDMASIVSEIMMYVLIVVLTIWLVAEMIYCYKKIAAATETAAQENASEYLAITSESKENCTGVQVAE
T1 sequence (O60939 30-215 partner): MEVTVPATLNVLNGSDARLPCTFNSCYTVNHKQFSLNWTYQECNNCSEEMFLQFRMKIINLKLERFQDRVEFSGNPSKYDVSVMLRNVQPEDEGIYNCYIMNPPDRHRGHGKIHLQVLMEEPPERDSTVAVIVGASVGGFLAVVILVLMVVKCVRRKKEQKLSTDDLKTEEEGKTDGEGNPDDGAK

AAAIASGLIRQKRQAREQHW [FHF4A peptide, synthetic 20-residue peptide from FHF4A A2 – W21]
effect on long-term inactivation of rpNav1.7 ([1]; 1 mM FHF4A peptide, HEK293): evidently enhanced accumulation of long-term inactivation of rpNav1.7
fraction of the current elicited at the 6th pulse ([1]; rpNav1.7, HEK293, 1 mM, six 16-ms pulses of −10 mV from −100 mV, 40-ms interpulse, scramble n = 6, FHF4A peptide n = 5, p < 0.0001): 0.21 ± 0.03
inhibition of Navβ4 peptide-mediated rpNav1.7 INaR [2]: inhibited completely
average FHF4A peptide mediated INaR amplitude (peak, −15 mV), Nav1.8 ([3]; Nav1.8 + FHF2B, ND7/23, 500 nM TTX, 1 mM peptide intracellular, measured after 20 ms into repolarization, mean ± S.E., n = 9): 4.8% ± 0.5%
potential at which INaR peaked [3, 14]: −15 mV
range of voltages at which INaR observed [3, 14]: −40 to +20 mV
saturation of effect on INaR ([3]; concentration-dependent curve, 1 mM): did not saturate at 1 mM
average INaR amplitude at −15 mV, Y387K [4]: 5.3% ± 0.5%
voltage dependence of INaR, N390K [5]: slightly shifted the voltage dependence of Nav1.8 INaR to more positive potentials
average INaR amplitude at −15 mV, N390K ([5]; + FHF2B, ND7/23, n = 7, p > 0.05 vs Nav1.8): 4.4% ± 0.7%
average INaR amplitude at −15 mV, Y1717K [6]: 4.6% ± 0.8%
INaR, N891S [7]: no INaR was induced
effect on steady-state activation or inactivation ([8]; Nav1.8 + FHF2B, ND7/23, FHF4A peptide): did not alter steady-state activation or inactivation
V1/2 (activation), Nav1.8, Figure 6 [8, 15]: −12.5 ± 1.7 mV
V1/2 (inactivation), Nav1.8, Figure 6 [8, 15]: −42.4 ± 4.3 mV
INaP, Nav1.8 ([8]; end of 50-ms pulse of +10 mV, normalized to peak transient current, 1 mM FHF4A peptide, n = 9): 3.0 ± 1.8 (9) %
V1/2 of steady-state inactivation, Y387K vs Nav1.8 [9]: None of four lysine-mutations significantly changed the V1/2 value of steady-state inactivation
Activation (V1/2), Y387K ([9]; + FHF2B, ND7/23, n = 10): −9.9 ± 2.1 (10) mV
Inactivation (V1/2), Y387K ([9]; + FHF2B, ND7/23, n = 10): −30.7 ± 1.5 (10) mV
INaP, Y387K ([9]; end of 50-ms pulse of +10 mV, normalized to peak transient current, n = 8): 3.6 ± 0.9 (8) %
V1/2 of steady-state inactivation, N390K vs Nav1.8 [10]: None of four lysine-mutations significantly changed the V1/2 value of steady-state inactivation
Activation (V1/2), N390K ([10]; + FHF2B, ND7/23, n = 7): −9.7 ± 1.8 (7) mV
Inactivation (V1/2), N390K ([10]; + FHF2B, ND7/23, n = 7): −33.5 ± 1.0 (7) mV
INaP, N390K ([10]; end of 50-ms pulse of +10 mV, normalized to peak transient current, n = 7, *p < 0.05): 5.6 ± 2.2^* (7) %
steady-state activation or inactivation, N891S vs Nav1.8 [11]: no effect on steady-state activation or inactivation
Activation (V1/2), N891S ([11]; + FHF2B, ND7/23, n = 6): −8.6 ± 2.1 (6) mV
Inactivation (V1/2), N891S ([11]; + FHF2B, ND7/23, n = 6): −36.4 ± 0.7 (6) mV
INaP, N891S ([11]; end of 50-ms pulse of +10 mV, normalized to peak transient current, n = 6, ***p < 0.0001): 1.1 ± 0.5^*** (6) %
FHF4A peptide mediated Nav1.8 INaR without FHF2B (control) [12]: 2.5% ± 0.4%
effect on fast inactivation after Nav1.8 opens [13]: accelerates fast inactivation after Nav1.8 opens

Reference: article PMC11480954, “Molecular determinants of resurgent sodium currents mediated by Navβ4 peptide and A-type FHFs” (Frontiers in Molecular Neuroscience, 2024)
